Laboratory results published in ChEMBL document CHEMBL1201862, “PubChem BioAssay data set” (2004).
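A five-concentration, 48-hour dose response in 96-well plates underlies each endpoint, interpolated linearly between surrounding concentrations. Abbreviation: GI50, concentration required for 50% inhibition of growth.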 Active and inactive are the calls of the source. Cut-off read from the data, not from the text of the source: active = GI50 up to about 1.1 µM and inactive = higher.

Assays:
Assay in all cases: DTP human tumour cell line panel, 48 h
KM12 = tested on: KM12
BT-549 = tested on: BT-549
MDA-N = tested on: MDA-N
MDA-MB-231 = tested on: MDA-MB-231
ACHN = tested on: ACHN
OVCAR-4 = tested on: OVCAR-4
HCT-116 = tested on: HCT-116
CCRF-CEM = tested on: CCRF-CEM
NCI-H226 = tested on: NCI-H226
UO-31 = tested on: UO-31
SN12C = tested on: SN12C
RXF 393 = tested on: RXF 393
EKVX = tested on: EKVX
IGROV-1 = tested on: IGROV-1
SK-MEL-2 = tested on: SK-MEL-2
CAKI-1 = tested on: CAKI-1
SF-539 = tested on: SF-539
SNB-75 = tested on: SNB-75
Hs-578T = tested on: Hs-578T

Measured: GI50

O=C(O)C(F)(OC(F)(F)C(F)(OC(F)(F)C(F)(F)C(F)(F)F)C(F)(F)F)C(F)(F)F (centres undefined)
inactive: KM12 > 100 µM | BT-549 > 100 µM | MDA-N > 100 µM | MDA-MB-231 > 100 µM | ACHN > 100 µM | OVCAR-4 > 100 µM | HCT-116 > 100 µM | CCRF-CEM > 100 µM | NCI-H226 > 100 µM | UO-31 > 100 µM | SN12C 78.5 µM | RXF 393 > 100 µM | EKVX > 100 µM | IGROV-1 > 100 µM | SK-MEL-2 > 100 µM | CAKI-1 > 100 µM | SF-539 > 100 µM | SNB-75 > 100 µM | Hs-578T > 100 µM

N=C(N)NS(=O)(=O)c1ccc(NCc2cccc3c(=O)c4ccc(Cl)cc4oc23)cc1
inactive: KM12 3.25 µM | BT-549 7.18 µM | MDA-N 5.27 µM | MDA-MB-231 > 10.8 µM | ACHN 7.6 µM | OVCAR-4 > 11.2 µM | HCT-116 2.99 µM | CCRF-CEM 1.82 µM | NCI-H226 > 25 µM | UO-31 5.41 µM | SN12C > 9.27 µM | RXF 393 3.08 µM | EKVX > 9.53 µM | IGROV-1 3.43 µM | SK-MEL-2 > 10.4 µM | CAKI-1 8.53 µM | SF-539 6.11 µM | SNB-75 3.08 µM | Hs-578T 4.37 µM

Cn1c(=O)c2c(nc3[nH]c(=O)c(Br)cn32)n(C)c1=O
inactive: KM12 > 100 µM | BT-549 > 100 µM | MDA-N > 100 µM | MDA-MB-231 > 100 µM | ACHN > 100 µM | OVCAR-4 > 100 µM | HCT-116 > 100 µM | CCRF-CEM > 100 µM | NCI-H226 > 100 µM | UO-31 > 100 µM | SN12C > 100 µM | RXF 393 > 100 µM | EKVX 93.8 µM | IGROV-1 > 100 µM | SK-MEL-2 > 100 µM | CAKI-1 > 100 µM | SF-539 > 100 µM | SNB-75 > 100 µM | Hs-578T > 100 µM

CC(=O)Nc1ccc(CNc2cc(=O)n(C)c(=O)[nH]2)cc1
inactive: KM12 > 100 µM | BT-549 > 100 µM | MDA-N > 100 µM | MDA-MB-231 > 100 µM | ACHN > 100 µM | OVCAR-4 > 100 µM | HCT-116 > 100 µM | CCRF-CEM > 100 µM | NCI-H226 > 100 µM | UO-31 > 100 µM | SN12C > 100 µM | RXF 393 > 100 µM | EKVX > 100 µM | IGROV-1 > 100 µM | SK-MEL-2 > 100 µM | CAKI-1 > 100 µM | SF-539 > 100 µM | SNB-75 > 100 µM | Hs-578T > 100 µM

CC(=O)c1cccc(NC(=O)C(=O)c2c(O)oc3ccccc3c2=O)c1
inactive: KM12 > 100 µM | BT-549 > 100 µM | MDA-N > 100 µM | MDA-MB-231 > 100 µM | ACHN > 100 µM | OVCAR-4 > 100 µM | HCT-116 > 100 µM | CCRF-CEM > 100 µM | NCI-H226 > 100 µM | UO-31 > 100 µM | SN12C > 100 µM | RXF 393 > 100 µM | EKVX > 100 µM | IGROV-1 > 100 µM | SK-MEL-2 10 µM | CAKI-1 > 100 µM | SF-539 > 100 µM | SNB-75 > 100 µM | Hs-578T > 100 µM

Cc1ncc([N+](=O)[O-])n1CCNS(=O)(=O)CCCn1ccnc1[N+](=O)[O-]
inactive: KM12 > 100 µM | BT-549 > 100 µM | MDA-N > 100 µM | MDA-MB-231 > 100 µM | ACHN > 100 µM | OVCAR-4 > 100 µM | HCT-116 > 100 µM | CCRF-CEM > 100 µM | NCI-H226 > 100 µM | UO-31 > 100 µM | SN12C > 100 µM | RXF 393 > 100 µM | EKVX > 100 µM | IGROV-1 > 100 µM | SK-MEL-2 > 100 µM | CAKI-1 > 100 µM | SF-539 > 100 µM | SNB-75 > 100 µM | Hs-578T > 100 µM
